Source: patent US6268478A, “Intracellular vitamin D binding protein” (Cedars-Sinai Medical Center, priority 1997, dated 2001)

How the values were obtained:
IDBP [1] = target: T1, IDBP (Saguinus oedipus, UniProt Q9N1U2); experiment: 25-OHD3 binding activity of cells transiently transfected with plasmid expressing the IDBP coding region; design: species or system Callithrix jacchus (common marmoset)
Description: The coding region of IDBP shown in FIG. 3 was cloned into pcDNA3.1 (Invitrogen). […] Control plasmid was the pcDNA3.1 vector without cloned insert.

IDBP(s) = experiment: Specific binding of [3H]25-OHD3 and [3H]17β-estradiol in post-hydroxyapatite peak I and peak II fractions of B95-8 extract; design: species or system Callithrix jacchus (common marmoset); conditions: both peak I and peak II from hydroxyapatite chromatography; tracer ± 100 nM radioinert ligand
Description: (§1) Briefly, unfractionated or post-FPLC fractions were incubated in ETD-0.5 M NaCl overnight at 4° C. with 4 nM [3H]25-OHD3 in the presence or absence of 1-100 nM unlabeled competitive ligand. Protein-bound [^3 H]25-OHD3 was separated from unbound sterol by incubation with dextran-coated charcoal. Specifically-bound 25-OHD3 was determined by subtracting the mean of duplicate determinations of binding in the presence of 100 nM radioinert competitive ligand from the mean of determinations of binding in the absence of added competitive ligand. Specific binding of 17β-[^3 H]estradiol as well as [^3 H]25-OHD3 to IDBP(s) was also determined in individual fractions eluting from hydroxyapatite chromatography. The binding assay conditions were the same as those stated above except that specific binding was determined in ETD-0.3 M Na2 HPO4 buffer (pH 6.8).
On the basis of protein recovery, enrichment of bioactivity, ease of use, and resin available for FPLC and/or HPLC applications, three chromatographic supports, one each from the three different kinds of packing materials evaluated, were selected for serial chromatographic purification of IDBP(s): BPS-DE cellulose for anion exchange chromatography, phenyl sepharose (mid sub) for hydrophobic interaction chromatography, and HTP-hydroxyapatite for separation of proteins by their surface charge. […]

[2] = target: T2, human heat shock protein-70 (hsp70) (Homo sapiens, UniProt P0DMV8); experiment: Competitive ligand binding of [3H]25-hydroxyvitamin D3 to recombinant inducibly-expressed hsp70
T2 construct: purchased StressGen, Victoria, B.C., Canada
T2 sequence (P0DMV8 whole entry): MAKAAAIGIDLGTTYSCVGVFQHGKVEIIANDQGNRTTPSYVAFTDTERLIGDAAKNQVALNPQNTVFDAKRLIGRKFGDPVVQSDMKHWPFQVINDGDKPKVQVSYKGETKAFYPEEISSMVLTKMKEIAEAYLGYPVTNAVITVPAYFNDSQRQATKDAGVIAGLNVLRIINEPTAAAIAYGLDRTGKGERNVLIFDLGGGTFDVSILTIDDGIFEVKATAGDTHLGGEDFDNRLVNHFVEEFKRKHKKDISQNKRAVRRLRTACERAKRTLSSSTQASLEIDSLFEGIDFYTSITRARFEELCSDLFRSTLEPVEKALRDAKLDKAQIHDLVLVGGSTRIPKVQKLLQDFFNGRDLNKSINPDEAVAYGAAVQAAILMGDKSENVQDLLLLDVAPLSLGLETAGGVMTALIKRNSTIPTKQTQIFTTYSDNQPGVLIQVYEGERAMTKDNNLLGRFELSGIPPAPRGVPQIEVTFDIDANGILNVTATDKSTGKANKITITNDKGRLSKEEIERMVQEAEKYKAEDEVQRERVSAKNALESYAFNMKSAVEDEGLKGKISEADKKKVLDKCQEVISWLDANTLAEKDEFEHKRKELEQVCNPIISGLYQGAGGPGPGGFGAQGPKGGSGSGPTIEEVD
Description: (§2) Ligand Binding Analyses. The ability of the unfractionated 100,000×g supernatant extracts of B95-8 cells and individual column fractions of chromatographically-purified material to bind [^3 H]25-OHD3 in the presence or absence of increasing concentrations of radioinert compounds (see Table I) was performed by competitive protein binding assay as previously described in Gacad et al. Bone Min. Res. 8:27-35 (1993).
as §1
Inducibly-expressed, recombinant human heat shock protein-70 (hsp70) was purchased from StressGen, Victoria, B.C., Canada. […]

IDBP [3] = target: T1, IDBP; experiment: Competitive displacement of [3H]25-OHD3 from IDBP in unfractionated 100,000×g supernatant extracts of B95-8 cells (competitive protein binding assay, dextran-coated charcoal); design: post-nuclear 100,000xg supernatant of B95-8 marmoset lymphoblasts and partly purified column fractions; species or system Callithrix jacchus (common marmoset)
Description: Culture and Extraction of B95-8 Cells. The B-lymphoblastoid cell line B95-8 was obtained from the American Type Culture Collection (ATCC, Manassas, Va.). This cell line was established by EBV transformation of blood leukocytes from the vitamin D-resistant new world primate, Callithrix jacchus (common marmoset). The cell line was maintained in RPMI-1640 medium (Irvine Scientific, Irvine, Calif.) routinely supplemented with 10% fetal calf serum (FCS; Gemini BioProducts, Calabasas, Calif.), 100 units/ml penicillin, 100 μg/ml streptomycin, 2 mM L-glutamine (both from Gibco-BRL, Grand Island, N.Y.) in an atmosphere of 95% air-5% CO2.
Confluent cultures were harvested by agitation to dislodge clumps of lymphoblasts that were weakly adherent to the plastic flask. Harvested cells were pelleted and washed twice in ice cold phosphate-buffered saline (PBS; 20 mM Na2 HPO4 and 150 mM NaCl, pH 7.2). The pelleted cells were then resuspended in ETD buffer (1 mM EDTA, 10 mM Tris-HCl, 5 mM dithiothreitol, pH 7.4) containing 1 mM phenylmethylsulfonylflouride and homogenized by Polytron on ice in five 15-second bursts. Nuclei with associated nuclear steroid receptor proteins, were pelleted at 4,000×g for 30 minutes at 4° C. The post-nuclear supernatant of this spin was then subjected to high-speed centrifugation at 100,000×g for 1 hour at 4° C. The resulting "100,000×g supernatant" was either aliquoted and stored at […] for further study, used in competitive ligand binding analyses, or subjected to further purification as described below in Example II.
as §2, with “fractions of chromatographically-purified material to bind [^3 H]25-OHD3 in the presence or absence” left out
[…] […] […] […] The binding assay conditions were the same as those stated above except that specific binding was determined in ETD-0.3 M Na2 HPO4 buffer (pH 6.8).

[4] = test system: ATP binding domain of IDBP; experiment: 25-OHD3 binding activity of cells transfected with construct encoding the IDBP ATP binding domain; design: species or system Callithrix jacchus (common marmoset); conditions: COS-7 and OMK gibbon cells transfected with ATP binding domain construct
Description: This experiment was repeated with expression plasmids which encode different fragments of IDBP. The coding region of the cDNA contains a convenient Eco RI restriction site which divides the region encoding the deduced ATP binding from the deduced peptide binding domain and variable domain.

T1 sequence (Q9N1U2 whole entry): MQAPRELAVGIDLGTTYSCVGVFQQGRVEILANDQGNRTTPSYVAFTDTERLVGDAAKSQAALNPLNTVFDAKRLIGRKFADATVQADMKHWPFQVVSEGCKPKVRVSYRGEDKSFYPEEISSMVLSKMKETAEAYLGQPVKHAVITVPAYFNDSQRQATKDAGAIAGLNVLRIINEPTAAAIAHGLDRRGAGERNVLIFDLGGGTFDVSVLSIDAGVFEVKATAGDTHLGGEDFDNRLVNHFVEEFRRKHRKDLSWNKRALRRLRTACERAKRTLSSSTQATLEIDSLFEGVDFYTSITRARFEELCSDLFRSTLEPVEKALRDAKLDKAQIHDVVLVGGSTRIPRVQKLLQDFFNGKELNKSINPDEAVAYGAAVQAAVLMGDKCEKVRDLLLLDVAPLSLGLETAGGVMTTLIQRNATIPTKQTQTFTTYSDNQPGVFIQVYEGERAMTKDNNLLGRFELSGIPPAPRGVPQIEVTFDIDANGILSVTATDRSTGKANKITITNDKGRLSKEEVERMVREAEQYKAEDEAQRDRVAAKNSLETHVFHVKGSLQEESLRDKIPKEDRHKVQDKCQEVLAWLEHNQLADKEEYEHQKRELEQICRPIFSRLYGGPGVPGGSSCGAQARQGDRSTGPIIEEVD

25-OHD3 binding activity (IDBP [1]; Cos-7 cells transfected with IDBP coding region in pcDNA3.1)	25-OHD3 binding activity (IDBP [1]; OMK gibbon cells transfected with IDBP coding region in pcDNA3.1)	specific binding activity for 25-OHD3 relative to that of 17β-estradiol (IDBP(s))	IC (maximal displacement) ([2]; inducibly expressed hsp70, read-out: concentration of radioinert ligand required to achieve maximal displacement of [3H]25-hydroxyvitamin D3) [µM]	IC (maximal displacement) (IDBP [3]; IDBP, read-out: concentration of radioinert ligand required to achieve maximal displacement of [3H]25-hydroxyvitamin D3) [µM]	Compound	ability to competitively displace [3H]25-OHD3 binding (FIG. 1A) (IDBP [3]; 100 nM competitor, 2 nM [3H]25-OHD3)	25-OHD3 binding activity [4]	specific [3H]25-OHD3 binding activity of hsp70 ([2]; recombinant human inducibly-expressed hsp70)
approximately 0.8 fmol/μg protein	approximately 1.0 fmol/μg protein	approximately 2 fold	0.05 to 0.1	0.05 to 0.1	C=C1CC[C@H](O)C/C1=C/C=C1\CCC[C@]2(C)[C@@H]([C@H](C)CCCC(C)(C)O)CC[C@@H]12 [25-OHD3, 25-hydroxy vitamin D3]	roughly equivalent in their ability to competitively inhibit	exhibited enhanced 25-OHD3 binding activity	–
–	–	–	–	–	[^3 H]25-hydroxy vitamin D3 [[^3 H]25-OHD3]	–	–	exhibited specific [^3 H]25-OHD3 binding activity
